Source: patent US20110077248A1, “IMIDAZOPYRIDINE AND RELATED ANALOGS AS SIRTUIN MODULATORS” (Sirtris Pharmaceuticals, Inc., priority 2008, published 2011)

Molecular target: T1, SIRT1 (Homo sapiens, UniProt Q96EB6)
T1 construct: His-tag (N); made in house; host or cells: E. coli BL21(DE3), T7-promoter vector
T1 sequence (Q96EB6 1-747): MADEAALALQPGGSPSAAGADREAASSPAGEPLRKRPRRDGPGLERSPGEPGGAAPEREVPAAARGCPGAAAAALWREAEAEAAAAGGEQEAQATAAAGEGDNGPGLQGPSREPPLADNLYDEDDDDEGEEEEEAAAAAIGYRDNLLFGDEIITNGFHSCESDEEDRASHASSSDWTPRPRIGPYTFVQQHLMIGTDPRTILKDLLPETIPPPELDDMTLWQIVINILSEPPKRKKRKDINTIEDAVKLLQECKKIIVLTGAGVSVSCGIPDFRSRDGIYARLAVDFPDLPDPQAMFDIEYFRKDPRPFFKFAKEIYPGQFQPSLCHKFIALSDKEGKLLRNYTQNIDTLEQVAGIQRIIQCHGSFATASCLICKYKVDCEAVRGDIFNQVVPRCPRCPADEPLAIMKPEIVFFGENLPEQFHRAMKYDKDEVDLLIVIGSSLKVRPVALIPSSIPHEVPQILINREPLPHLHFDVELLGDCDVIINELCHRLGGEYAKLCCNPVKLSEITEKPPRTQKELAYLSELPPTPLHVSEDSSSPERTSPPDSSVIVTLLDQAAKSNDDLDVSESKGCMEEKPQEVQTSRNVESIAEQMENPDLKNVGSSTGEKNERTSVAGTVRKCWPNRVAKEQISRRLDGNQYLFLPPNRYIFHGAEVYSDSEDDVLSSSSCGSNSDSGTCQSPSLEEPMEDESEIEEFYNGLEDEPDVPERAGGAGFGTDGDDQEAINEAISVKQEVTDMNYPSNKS
Test: Mass spectrometry based assay for modulators of SIRT1 activity (deacetylation of p53-based acetylated peptide)
Assay type: biochemical
Details: for EC1.5: concentration of test compound that results in 150% activation of SIRT1, 0.5 μM peptide substrate, 120 μM βNAD+, 10 nM SIRT1, 25 min, 25° C.; for Emax: percent maximum fold activation of SIRT1
How it was run: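 Reaction: 10 nM His-tagged human SIRT1 (E. coli-expressed) with 0.5 μM 5TMR-labelled acetylated p53-derived peptide and 120 μM NAD+, 25 min at 25 °C, pH 8 Tris-acetate buffer; formic acid quench. Deacetylation quantified by mass spectrometry against a DMSO control; EC1.5 = concentration giving 150% activation.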

| EC1.5 | Emax | SMILES |
| --- | --- | --- |
| A (EC1.5<1.0 uM) | < 200% | O=C(Nc1ccccn1)c1cccn2cc(-c3cccc(C(F)F)c3)nc12 [Compound 207] |
| A (EC1.5<1.0 uM) | > 200% | O=C(Nc1nc(CN2CCOCC2)cs1)c1cccn2cc(-c3cccc(C(F)F)c3)nc12 [Compound 208] |
| A (EC1.5<1.0 uM) | > 200% | O=C(Nc1cccc(CN2CCOCC2)n1)c1cccn2cc(-c3cccc(C(F)F)c3)nc12 [Compound 209] |
| C (EC1.5>25 uM) | < 200% | Cc1ccc(-c2nc3c(C(=O)Nc4nccs4)cccn3n2)cn1 [Compound 210, 2-(6-methylpyridin-3-yl)-N-(thiazol-2-yl)-[1,2,4]triazolo[1,5-a]pyridine-8-carboxamide] |
| C (EC1.5>25 uM) | < 200% | Cc1ccc(-c2nc3c(C(=O)Nc4ccccn4)cccn3n2)cn1 [Compound 211] |
| B (EC1.5 1-25 uM) | < 200% | Cc1ccc(-c2nc3c(C(=O)Nc4nc(CN5CCOCC5)cs4)cccn3n2)cn1 [Compound 212] |
| B (EC1.5 1-25 uM) | > 200% | Cc1ccc(-c2nc3c(C(=O)Nc4cccc(CN5CCOCC5)n4)cccn3n2)cn1 [Compound 213] |
| B (EC1.5 1-25 uM) | > 200% | Cc1cc(-c2nc3c(C(=O)Nc4nccs4)cccn3n2)ccn1 [Compound 214, 2-(2-methylpyridin-4-yl)-N-(thiazol-2-yl)-[1,2,4]triazolo[1,5-a]pyridine-8-carboxamide] |
| B (EC1.5 1-25 uM) | > 200% | Cc1cc(-c2nc3c(C(=O)Nc4ccccn4)cccn3n2)ccn1 [Compound 215] |
| B (EC1.5 1-25 uM) | > 200% | Cc1cc(-c2nc3c(C(=O)Nc4nc(CN5CCOCC5)cs4)cccn3n2)ccn1 [Compound 216] |
| B (EC1.5 1-25 uM) | > 200% | Cc1cc(-c2nc3c(C(=O)Nc4cccc(CN5CCOCC5)n4)cccn3n2)ccn1 [Compound 217] |
| C (EC1.5>25 uM) | < 200% | O=C(Nc1ccc(CCN2CCCC2)cc1)c1cccn2cc(-c3ccc(F)cc3C(F)(F)F)nc12 [Compound 218] |
| A (EC1.5<1.0 uM) | > 200% | O=C(Nc1nccs1)c1cccn2nc(-c3ccc(N4CCOCC4)cc3C(F)(F)F)nc12 [Compound 219, 2-(4-morpholino-2-(trifluoromethyl)phenyl)-N-(thiazol-2-yl)-[1,2,4]triazolo[1,5-a]pyridine-8-carboxamide] |
| A (EC1.5<1.0 uM) | > 200% | O=C(Nc1ccccn1)c1cccn2nc(-c3ccc(N4CCOCC4)cc3C(F)(F)F)nc12 [Compound 220] |
| A (EC1.5<1.0 uM) | > 200% | O=C(Nc1nccs1)c1cccn2nc(-c3cc(N4CCOCC4)ccc3C(F)(F)F)nc12 [Compound 221, 2-(5-morpholino-2-(trifluoromethyl)phenyl)-N-(thiazol-2-yl)-[1,2,4]triazolo[1,5-a]pyridine-8-carboxamide] |
| A (EC1.5<1.0 uM) | > 200% | O=C(Nc1ccccn1)c1cccn2nc(-c3cc(N4CCOCC4)ccc3C(F)(F)F)nc12 [Compound 222] |
| B (EC1.5 1-25 uM) | < 200% | O=C(Nc1nccs1)c1cccn2nc(-c3cc(Cl)ccc3C(F)(F)F)nc12 [Compound 223] |
| B (EC1.5 1-25 uM) | < 200% | O=C(Nc1ccccn1)c1cccn2nc(-c3cc(Cl)ccc3C(F)(F)F)nc12 [Compound 224] |
| B (EC1.5 1-25 uM) | > 200% | O=C(Nc1nccs1)c1cccn2nc(-c3ccccc3OC(F)F)nc12 [Compound 225] |
| B (EC1.5 1-25 uM) | > 200% | O=C(Nc1ccccn1)c1cccn2nc(-c3ccccc3OC(F)F)nc12 [Compound 226] |
| B (EC1.5 1-25 uM) | > 200% | O=C(Nc1nccs1)c1cccn2nc(-c3ccccc3OC(F)(F)F)nc12 [Compound 227] |
| B (EC1.5 1-25 uM) | > 200% | O=C(Nc1ccccn1)c1cccn2nc(-c3ccccc3OC(F)(F)F)nc12 [Compound 228] |
| C (EC1.5>25 uM) | < 200% | Cc1nc(C)c(-c2nc3c(C(=O)Nc4nccs4)cccn3n2)s1 [Compound 229] |
| C (EC1.5>25 uM) | < 200% | Cc1nc(C)c(-c2nc3c(C(=O)Nc4ccccn4)cccn3n2)s1 [Compound 230] |
| B (EC1.5 1-25 uM) | < 200% | O=C(Nc1nc(CN2CCOCC2)cs1)c1cccn2cc(-c3cccc(F)c3F)nc12 [Compound 231] |

| EC1.5 | Emax | SMILES |
| --- | --- | --- |
| B (EC1.5 1-25 uM) | < 200% | O=C(Nc1cccc(CN2CCOCC2)n1)c1cccn2cc(-c3cccc(F)c3F)nc12 [Compound 232] |
| A (EC1.5<1.0 uM) | > 200% | O=C(Nc1nc(CN2CCOCC2)cs1)c1cccn2cc(-c3cccc(Cl)c3)nc12 [Compound 233] |
| A (EC1.5<1.0 uM) | > 200% | O=C(Nc1cccc(CN2CCOCC2)n1)c1cccn2cc(-c3cccc(Cl)c3)nc12 [Compound 234] |
| A (EC1.5<1.0 uM) | > 200% | O=C(Nc1nc(CN2CCOCC2)cs1)c1cccn2cc(-c3ccc(F)c(Cl)c3)nc12 [Compound 235] |
| A (EC1.5<1.0 uM) | > 200% | O=C(Nc1cccc(CN2CCOCC2)n1)c1cccn2cc(-c3ccc(F)c(Cl)c3)nc12 [Compound 236] |
| A (EC1.5<1.0 uM) | > 200% | O=C(Nc1nc(CN2CCOCC2)cs1)c1cccn2cc(-c3ccc(F)cc3C(F)(F)F)nc12 [Compound 237] |
| A (EC1.5<1.0 uM) | > 200% | O=C(Nc1cccc(CN2CCOCC2)n1)c1cccn2cc(-c3ccc(F)cc3C(F)(F)F)nc12 [Compound 238] |
| C (EC1.5>25 uM) | < 200% | Cc1ncccc1-c1nc2c(C(=O)Nc3nccs3)cccn2n1 [Compound 239, 2-(2-methylpyridin-3-yl)-N-(thiazol-2-yl)-[1,2,4]triazolo[1,5-a]pyridine-8-carboxamide] |
| C (EC1.5>25 uM) | < 200% | Cc1ncccc1-c1nc2c(C(=O)Nc3ccccn3)cccn2n1 [Compound 240] |
| B (EC1.5 1-25 uM) | < 200% | Cc1ncccc1-c1nc2c(C(=O)Nc3nc(CN4CCOCC4)cs3)cccn2n1 [Compound 241] |
| B (EC1.5 1-25 uM) | > 200% | Cc1ncccc1-c1nc2c(C(=O)Nc3cccc(CN4CCOCC4)n3)cccn2n1 [Compound 242] |
| B (EC1.5 1-25 uM) | > 200% | O=C(Nc1cccnn1)c1nccn2cc(-c3ccccc3OC(F)(F)F)nc12 [Compound 243] |
| B (EC1.5 1-25 uM) | > 200% | O=C(Nc1ccncn1)c1nccn2cc(-c3ccccc3OC(F)(F)F)nc12 [Compound 244] |
| A (EC1.5<1.0 uM) | > 200% | O=C(Nc1cnccn1)c1nccn2cc(-c3ccccc3OC(F)(F)F)nc12 [Compound 245] |
| A (EC1.5<1.0 uM) | > 200% | O=C(Nc1ccncn1)c1nccn2cc(-c3ccc(F)cc3C(F)(F)F)nc12 [Compound 246] |
| B (EC1.5 1-25 uM) | > 200% | O=C(Nc1cnccn1)c1nccn2cc(-c3ccc(F)cc3C(F)(F)F)nc12 [Compound 247] |
| B (EC1.5 1-25 uM) | > 200% | O=C(Nc1ccccn1)c1cccn2nc(-c3ccc(OCCN4CCOCC4)cc3C(F)F)nc12 [Compound 248] |
| B (EC1.5 1-25 uM) | > 200% | O=C(Nc1ccccn1)c1cccn2nc(-c3ccc(OC[C@@H](O)CO)cc3C(F)F)nc12 [Compound 250] |
| B (EC1.5 1-25 uM) | > 200% | O=C(Nc1ccccn1)c1cccn2cc(-c3ccc(CN4CCOCC4)cc3)nc12 [Compound 251] |
| B (EC1.5 1-25 uM) | > 200% | O=C(Nc1nccs1)c1cccn2cc(-c3ccc(CN4CCCC4)cc3)nc12 [Compound 252] |
| B (EC1.5 1-25 uM) | > 200% | O=C(Nc1ccccn1)c1cccn2cc(-c3ccc(CN4CCCC4)cc3)nc12 [Compound 253] |
| A (EC1.5<1.0 uM) | > 200% | O=C(Nc1nccs1)c1cccn2cc(-c3cccc(CN4CCOCC4)c3)nc12 [Compound 254] |
| A (EC1.5<1.0 uM) | > 200% | O=C(Nc1ccccn1)c1cccn2cc(-c3cccc(CN4CCOCC4)c3)nc12 [Compound 255] |
| B (EC1.5 1-25 uM) | > 200% | O=C(Nc1nccs1)c1cccn2cc(-c3cccc(CN4CCCC4)c3)nc12 [Compound 256] |
| B (EC1.5 1-25 uM) | > 200% | O=C(Nc1ccccn1)c1cccn2cc(-c3cccc(CN4CCCC4)c3)nc12 [Compound 257] |
